Patent publication US20180325923A1, “FATTY ACID ACETYLATED SALICYLATES AND THEIR USES” (Catabasis Pharmaceuticals, Inc., priority 2008, published 2018)
Like-named read-outs stand apart in the source and are kept apart here.

Test system: TNFα secretion in RAW 264.7 macrophages
Experiment: TNFα release assay in RAW 264.7 macrophages stimulated with LPS
Type: cell-based, mouse
From the text: The purpose of this assay is to measure the ability of small molecules to inhibit the secretion of TNFα in cultured macrophages stimulated with lipopolysaccharide (LPS). Treatment of macrophages with LPS activates inflammatory cytokine pathways primarily through the TLR4-NFκB signaling axis. […] Dexamethasone, a potent agonist of the glucocorticoid receptor is used a positive control for inhibition of TNFα release. Day 1: Seed RAW 264.7 macrophages into 96 well culture plates. Remove culture media from RAW 264.7 cell growing in a […] tissue culture flask (cells should be at […] confluence) and add 10 ml of warmed complete growth media (DMEM+10% FBS+1× pen/step). The cells are scraped into suspension using a sterile plate scraper and homogenized by pipetting up and down with a 10 ml serological pipette. The cell concentration is determined using a clinical hematoctyometer. Cells are then diluted to 150,000 cells per ml into growth media. The diluted cells are then transferred to a sterile reagent reservoir and 100 μl of cell suspension is pipetted into each well of a 96 well culture plate using a multichannel pipette (15,000 cells/well). Plates are then incubated at 37° C. under normal tissue culture growth conditions (37° C., humidified CO2 chamber). Day 2: The test compound sample plate is prepared. Test compounds are prepared in growth media. Compounds are delivered to media from 1000× stocks in 100% DMSO (e.g. for a 10 μM final concentration of test compound, deliver 2 μl of 10 mM test compound to 2 ml of media). At least 150 μl of 1× compound in media is added to 96 well sample plate. Note: the perimeter wells of the 96 well plate are not used to avoid edge effects. Twelve sample wells are prepared with media plus 0.1% DMSO (these samples will serve as the vehicle controls; LPS-stimulated and non-stimulated. 10 μM dexamethasone is used as a positive control). Culture plates are then returned to the growth incubator for 2 hours. Cells are stimulated afterwards by adding 25 μl of 50 ng/ml LPS is added to every well (except the 6 unstimulated vehicle control wells: final concentration of 10 ng/ml LPS. Plates are returned to growth incubator for 3 hours. Afterwards, 100 μl of media supernatant is removed and transferred to a 96 well v-bottom sample plate. The media supernatant plate is centrifuged for 5 minutes at 1000 rpm in a swing-bucket centrifuge, pelleting any cellular debris that may remain in supernatant. 80 μl of supernatant is removed from sample plate and transferred to a fresh v-bottom 96 well plate. Cell viability is measured using Celltiter-glo kit. By measuring cell viability, a given compound's effects on TNFα secretion can determine whether effects are due to cytotoxicity or to true inhibition of inflammatory signaling. Add 100 μl of Celltiter-glo reagent to each well of the cell culture plate and afterwards measure the luminescence signal (CPS) of the plate using the Victor 5 plate reader (0.3 second read; 60 second plate shaking prior to read). Cell viability of a given compound at a given concentration is computed as follows: Cell viability=CPS Sample/(Average CPS unstimulated controls)*100 […] Follow Invitrogen/Biosource manufacture's protocol for the mouse TNFα ELISA. Chromogen development is typically conducted for 20-30 minutes as described in the manufacturer's protocol. After addition of stop solution, measure OD 450 nm using the Victor 5 plate reader (0.1 second/well scan). Determine the TNFα secretion percent of control. The following formula is used to determine the TNFα secretion percent of control: [formula] For each test compound, TNFα secretion percent of control can be plotted as a function of compound concentration using a four parameter dose-response curve fit equation (XLFIT Model #205): fit=([…]=([…]=(y-fit) […] A sample graph showing the data obtained by using one of the Compounds of the Invention in the procedure described above in Example 6 is shown in FIG. 2.

[1] = RAW264.7, RAW 264.7 macrophages, 10 ng/ml LPS, mouse TNFα ELISA, read-out: TNFα Secretion, IC50 μM

Row | IC50 [1] [µM] | Structure (SMILES) | further results
1 |  | CC/C=C\C/C=C\C/C=C\C/C=C\C/C=C\C/C=C\CCC(=O)Nc1ccc(O)c(C(=O)O)c1 [III-1, 5-(4Z,7Z,10Z,13Z,16Z,19Z)-docosa-4,7,10,13,16,19-hexaenamido-2-hydroxybenzoic acid] | IC50 (Mus musculus, RAW264.7, read-out: TNFα Secretion, IC50 μM): 146 µM
2 | 69.2 | CC/C=C\C/C=C\C/C=C\C/C=C\C/C=C\C/C=C\CCC(=O)Oc1ccccc1C(=O)O [Ia-1, 2-((4Z,7Z,10Z,13Z,16Z,19Z)-docosa-4,7,10,13,16,19-hexaenoyloxy)benzoic acid] | 
3 |  | CC/C=C\C/C=C\C/C=C\C/C=C\C/C=C\C/C=C\CCC(=O)NC(CC(C)C)C(=O)Oc1ccccc1C(=O)OCC (stereo not shown) [Compound I-1, ethyl 2-(2-(4Z,7Z,10Z,13Z,16Z,19Z)-docosa-4,7,10,13,16,19-hexaenamido-4-methylpentanoyloxy)benzoate] | inhibition at 6.2 µM (Mus musculus, RAW264.7, read-out: TNFα Secretion, % Inhibition): 24.4%
4 | > 100 | Nc1ccc(O)c(C(=O)O)c1 [Compound 5-ASA, 5-aminosalicylic acid, reference compound] | 
5 | > 100 | CC/C=C\C/C=C\C/C=C\C/C=C\C/C=C\C/C=C\CCC(=O)O [DHA, all-cis-4,7,10,13,16,19-docosahexaenoic acid, reference compound] | 
6 | 65.3 | CC/C=C\C/C=C\C/C=C\C/C=C\C/C=C\C/C=C\CCC(=O)NC(CC(C)C)C(=O)Nc1ccc(O)c(C(=O)O)c1 (stereo not shown) [III-6, 5-(2-(4Z,7Z,10Z,13Z,16Z,19Z)-docosa-4,7,10,13,16,19-hexaenamido-4-methylpentanamido)-2-hydroxybenzoic acid] | 
7 | 15 | CC/C=C\C/C=C\C/C=C\C/C=C\C/C=C\C/C=C\CCC(=O)NCCNC(=O)c1ccccc1O [Compound 31, N-(2-(4Z,7Z,10Z,13Z,16Z,19Z)-docosa-4,7,10,13,16,19-hexaenamidoethyl)-2-hydroxybenzamide] | 
